Source: US20240391936A1, “TETRAHYDROTHIENO PYRIDINE DERIVATIVES AS DDRS INHIBITORS” (CHIESI FARMACEUTICI S.P.A., priority 2021, published 2024)

Tests used:
DDR1 [1] = target: T1, DDR1 (Homo sapiens, UniProt Q08345); assay: DDR1 binding assay (LanthaScreen Europium Kinase Binding assay); design: purchased Carna Biosciences; details: binding assay, 5 nM DDR1, 20 nM Kinase Tracer 178; Ki from IC50 by Cheng-Prusoff; read-out: Ki DDR1
Outline: (§1)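 Compounds incubated 1 h at room temperature with 5 nM kinase, Kinase Tracer 178 (20 nM for DDR1, 10 nM for DDR2) and 2 nM Eu-anti-GST antibody in pH 7.5 HEPES/MgCl2/EGTA/BRIJ35 buffer. TR-FRET 665/615 nm ratio read after 340 nm excitation; IC50 from 4-parameter fit, converted to Ki by Cheng-Prusoff.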

DDR1 [2] = target: T1, DDR1; assay: DDR1 cell based assay (PathHunter U2OS DDR1 assay); design: host or cells: U2OS-DDR1 (PathHunter); details: U2OS-DDR1 cells, bovine Type II Collagen 20 μg/ml
Outline: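 U2OS-DDR1 PathHunter cells preincubated 30 min with compound, then stimulated overnight at 37 °C with 20 μg/ml bovine type II collagen. Luminescent complementation signal read after 1 h detection at room temperature; normalized to vehicle (0%) and collagen-only (100%) controls, IC50 from variable-slope sigmoidal fit.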

DDR2 = target: T2, DDR2 (Homo sapiens, UniProt Q16832); assay: DDR2 binding assay (LanthaScreen Europium Kinase Binding assay); design: purchased Life Technologies; details: binding assay, 5 nM DDR2, 10 nM Kinase Tracer 178; Ki from IC50 by Cheng-Prusoff; read-out: Ki DDR2
T2 sequence (Q16832 22-855): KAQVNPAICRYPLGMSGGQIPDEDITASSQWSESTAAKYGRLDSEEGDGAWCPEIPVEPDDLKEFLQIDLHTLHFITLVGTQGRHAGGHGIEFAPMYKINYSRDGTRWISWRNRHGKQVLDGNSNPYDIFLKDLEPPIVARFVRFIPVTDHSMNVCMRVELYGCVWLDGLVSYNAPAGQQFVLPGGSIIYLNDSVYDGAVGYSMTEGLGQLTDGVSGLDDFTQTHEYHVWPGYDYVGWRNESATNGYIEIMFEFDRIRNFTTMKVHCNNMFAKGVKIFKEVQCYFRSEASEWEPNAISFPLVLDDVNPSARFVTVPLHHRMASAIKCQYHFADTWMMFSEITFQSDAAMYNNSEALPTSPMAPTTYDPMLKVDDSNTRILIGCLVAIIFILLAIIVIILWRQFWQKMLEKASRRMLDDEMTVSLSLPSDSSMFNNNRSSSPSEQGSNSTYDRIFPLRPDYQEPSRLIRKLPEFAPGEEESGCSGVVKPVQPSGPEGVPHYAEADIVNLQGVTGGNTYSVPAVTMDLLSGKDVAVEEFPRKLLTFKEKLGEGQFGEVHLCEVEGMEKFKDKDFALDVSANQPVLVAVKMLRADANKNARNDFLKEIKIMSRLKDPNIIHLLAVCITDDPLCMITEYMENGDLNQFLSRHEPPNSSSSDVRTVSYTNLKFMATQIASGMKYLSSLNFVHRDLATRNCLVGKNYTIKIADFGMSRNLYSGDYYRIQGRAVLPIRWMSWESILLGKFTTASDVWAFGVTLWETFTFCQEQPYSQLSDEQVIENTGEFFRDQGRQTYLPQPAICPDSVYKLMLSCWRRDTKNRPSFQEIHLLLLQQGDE
Outline: as §1

T1 sequence (Q08345 19-913): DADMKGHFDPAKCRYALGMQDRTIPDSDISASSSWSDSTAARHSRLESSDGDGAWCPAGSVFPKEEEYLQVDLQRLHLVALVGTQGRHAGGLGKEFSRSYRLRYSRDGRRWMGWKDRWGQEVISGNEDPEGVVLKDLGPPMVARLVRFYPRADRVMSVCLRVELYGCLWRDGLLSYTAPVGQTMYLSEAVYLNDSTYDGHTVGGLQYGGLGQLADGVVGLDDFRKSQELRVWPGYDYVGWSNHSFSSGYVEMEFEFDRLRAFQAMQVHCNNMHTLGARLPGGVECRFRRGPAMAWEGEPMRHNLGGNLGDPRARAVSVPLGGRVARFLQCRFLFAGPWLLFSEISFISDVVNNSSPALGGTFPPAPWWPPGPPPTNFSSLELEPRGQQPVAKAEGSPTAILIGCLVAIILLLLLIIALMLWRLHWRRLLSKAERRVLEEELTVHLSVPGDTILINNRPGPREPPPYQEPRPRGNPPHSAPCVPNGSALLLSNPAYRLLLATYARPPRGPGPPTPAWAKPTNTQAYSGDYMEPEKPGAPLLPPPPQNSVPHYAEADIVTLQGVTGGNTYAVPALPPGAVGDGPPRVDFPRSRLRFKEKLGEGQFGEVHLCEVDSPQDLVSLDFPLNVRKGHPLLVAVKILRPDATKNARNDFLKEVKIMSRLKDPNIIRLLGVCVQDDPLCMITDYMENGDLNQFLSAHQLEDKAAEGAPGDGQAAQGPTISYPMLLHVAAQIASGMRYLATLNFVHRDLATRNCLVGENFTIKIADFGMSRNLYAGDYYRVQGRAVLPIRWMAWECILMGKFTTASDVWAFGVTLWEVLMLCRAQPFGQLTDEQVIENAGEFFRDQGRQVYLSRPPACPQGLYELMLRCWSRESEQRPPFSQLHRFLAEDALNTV

| Ki (DDR1 [1]) | IC50 (DDR1 [2]) | Ki (DDR2) | Structure (SMILES) |
| --- | --- | --- | --- |
| < 25 nM | < 25 nM | < 25 nM | COCCOc1ccn2c(C(=O)N3CCc4c(C(=O)Nc5cccc(C(F)(F)F)c5)csc4C3)cnc2c1 [Example 138, 6-(7-(2-methoxyethoxy)imidazo[1,2-a]pyridine-3-carbonyl)-N-(3-(trifluoromethyl)phenyl)-4,5,6,7-tetrahydrothieno[2,3-c]pyridine-3-carboxamide] |
| < 25 nM | 25 to 50 nM | < 25 nM | O=C(Nc1cccc(C(F)(F)F)c1)c1csc2c1CCN(C(=O)c1cnc3cc(OCCN4CCOCC4)ccn13)C2 [Example 139, 6-(7-(2-morpholinoethoxy)imidazo[1,2-a]pyridine-3-carbonyl)-N-(3-(trifluoromethyl)phenyl)-4,5,6,7-tetrahydrothieno[2,3-c]pyridine-3-carboxamide] |
| < 25 nM | < 25 nM | < 25 nM | COc1ccn2ncc(C(=O)N3CCc4c(C(=O)Nc5cncc(C(F)(F)F)c5)csc4C3)c2c1 [Example 140, 6-(5-methoxypyrazolo[1,5-a]pyridine-3-carbonyl)-N-(5-(trifluoromethyl)pyridin-3-yl)-4,5,6,7-tetrahydrothieno[2,3-c]pyridine-3-carboxamide] |
| < 25 nM | < 25 nM | < 25 nM | O=C(Nc1cncc(C(F)(F)F)c1)c1csc2c1CCN(C(=O)c1cnn3ccsc13)C2 [Example 141, 6-(pyrazolo[5,1-b]thiazole-7-carbonyl)-N-(5-(trifluoromethyl)pyridin-3-yl)-4,5,6,7-tetrahydrothieno[2,3-c]pyridine-3-carboxamide] |
| < 25 nM | 50 to 80 nM | < 25 nM | COc1ccn2c(C(=O)N3CCc4c(C(=O)Nc5cncc(C(F)(F)F)c5)csc4C3)cnc2c1 [Example 142, 6-(7-methoxyimidazo[1,2-a]pyridine-3-carbonyl)-N-(5-(trifluoromethyl)pyridin-3-yl)-4,5,6,7-tetrahydrothieno[2,3-c]pyridine-3-carboxamide] |
| < 25 nM | < 25 nM | < 25 nM | Cn1ccn2ncc(C(=O)N3CCc4c(C(=O)Nc5cncc(C(F)(F)F)c5)csc4C3)c12 [Example 143, 6-(1-methyl-1H-imidazo[1,2-b]pyrazole-7-carbonyl)-N-(5-(trifluoromethyl)pyridin-3-yl)-4,5,6,7-tetrahydrothieno[2,3-c]pyridine-3-carboxamide] |
| < 25 nM | < 25 nM | < 25 nM | O=C(Nc1cncc(C(F)(F)F)c1)c1csc2c1CCN(C(=O)c1cnc3cc(F)ccn13)C2 [Example 144, 6-(7-fluoroimidazo[1,2-a]pyridine-3-carbonyl)-N-(5-(trifluoromethyl)pyridin-3-yl)-4,5,6,7-tetrahydrothieno[2,3-c]pyridine-3-carboxamide] |
| < 25 nM | 25 to 50 nM | 25 to 50 nM | CN1CCN(c2ccc3ncc(C(=O)N4CCc5c(C(=O)Nc6cc(C(C)(C)C)n(C)n6)csc5C4)n3c2)CC1 [Example 145, N-(5-(tert-butyl)-1-methyl-1H-pyrazol-3-yl)-6-(6-(4-methylpiperazin-1-yl)imidazo[1,2-a]pyridine-3-carbonyl)-4,5,6,7-tetrahydrothieno[2,3-c]pyridine-3-carboxamide] |
| < 25 nM | 25 to 50 nM | < 25 nM | Cc1n[nH]c2ncc(CN3CCc4c(C(=O)Nc5cc(C6CC6)nn5C)csc4C3)cc12 [Example 146, N-(3-cyclopropyl-1-methyl-1H-pyrazol-5-yl)-6-((3-methyl-1H-pyrazolo[3,4-b]pyridin-5-yl)methyl)-4,5,6,7-tetrahydrothieno[2,3-c]pyridine-3-carboxamide] |
| < 25 nM | < 25 nM | < 25 nM | Cc1n[nH]c2ncc(CN3CCc4c(C(=O)Nc5cc(C(C)(C)C)no5)csc4C3)cc12 [Example 147, N-(3-(tert-butyl)isoxazol-5-yl)-6-((3-methyl-1H-pyrazolo[3,4-b]pyridin-5-yl)methyl)-4,5,6,7-tetrahydrothieno[2,3-c]pyridine-3-carboxamide] |
| < 25 nM | < 25 nM | < 25 nM | Cc1n[nH]c2ncc(CN3CCc4c(C(=O)Nc5cc(C6CC6)on5)csc4C3)cc12 [Example 148, N-(5-cyclopropylisoxazol-3-yl)-6-((3-methyl-1H-pyrazolo[3,4-b]pyridin-5-yl)methyl)-4,5,6,7-tetrahydrothieno[2,3-c]pyridine-3-carboxamide] |
| < 25 nM | 25 to 50 nM | < 25 nM | CN1CCN(c2n[nH]c3ncc(CN4CCc5c(C(=O)Nc6cncc(C(F)(F)F)c6)csc5C4)cc23)CC1 [Example 149, 6-((3-(4-methylpiperazin-1-yl)-1H-pyrazolo[3,4-b]pyridin-5-yl)methyl)-N-(5-(trifluoromethyl)pyridin-3-yl)-4,5,6,7-tetrahydrothieno[2,3-c]pyridine-3-carboxamide] |
| < 25 nM | 50 to 80 nM | < 25 nM | O=C(Nc1cncc(C(F)(F)F)c1)c1csc2c1CCN(Cc1cnn3ccncc13)C2 [Example 154, 6-(pyrazolo[1,5-a]pyrazin-3-ylmethyl)-N-(5-(trifluoromethyl)pyridin-3-yl)-4,5,6,7-tetrahydrothieno[2,3-c]pyridine-3-carboxamide] |
| < 25 nM | 25 to 50 nM | < 25 nM | O=C(Nc1cncc(C(F)(F)F)c1)c1csc2c1CCN(Cc1ncnc3[nH]ccc13)C2 [Example 155, 6-((7H-pyrrolo[2,3-d]pyrimidin-4-yl)methyl)-N-(5-(trifluoromethyl)pyridin-3-yl)-4,5,6,7-tetrahydrothieno[2,3-c]pyridine-3-carboxamide] |
| < 25 nM | < 25 nM | < 25 nM | CC(C)(C)c1cc(NC(=O)c2csc3c2CCN(Cc2cnc4ccnn4c2)C3)on1 [Example 156, N-(3-(tert-butyl)isoxazol-5-yl)-6-(pyrazolo[1,5-a]pyrimidin-6-ylmethyl)-4,5,6,7-tetrahydrothieno[2,3-c]pyridine-3-carboxamide] |
| < 25 nM | 25 to 50 nM | 25 to 50 nM | Cc1n[nH]c2ncc(CN3CCc4c(C(=O)Nc5cc(CN6CC[C@@H](N(C)C)C6)cc(C(F)(F)F)c5)csc4C3)cc12 [Example 157, (R)—N-(3-((3-(dimethylamino)pyrrolidin-1-yl)methyl)-5-(trifluoromethyl)phenyl)-6-((3-methyl-1H-pyrazolo[3,4-b]pyridin-5-yl)methyl)-4,5,6,7-tetrahydrothieno[2,3-c]pyridine-3-carboxamide] |
| < 25 nM | 25 to 50 nM | < 25 nM | CN(C)[C@@H]1CCN(Cc2cc(NC(=O)c3csc4c3CCN(Cc3cnc5[nH]ccc5c3)C4)cc(C(F)(F)F)c2)C1 [Example 159, (R)-6-((1H-pyrrolo[2,3-b]pyridin-5-yl)methyl)-N-(3-((3-(dimethylamino)pyrrolidin-1-yl)methyl)-5-(trifluoromethyl)phenyl)-4,5,6,7-tetrahydrothieno[2,3-c]pyridine-3-carboxamide] |
| < 25 nM | 50 to 80 nM | < 25 nM | CN(C)[C@@H]1CCN(Cc2cc(NC(=O)c3csc4c3CCN(Cc3cnc5cnccn35)C4)cc(C(F)(F)F)c2)C1 [Example 160, (R)-N-(3-((3-(dimethylamino)pyrrolidin-1-yl)methyl)-5-(trifluoromethyl)phenyl)-6-(imidazo[1,2-a]pyrazin-3-ylmethyl)-4,5,6,7-tetrahydrothieno[2,3-c]pyridine-3-carboxamide] |
| < 25 nM | 25 to 50 nM | < 25 nM | CN(C)[C@@H]1CCN(Cc2cc(NC(=O)c3csc4c3CCN(Cc3cnc5ccnn5c3)C4)cc(C(F)(F)F)c2)C1 [Example 161, (R)-N-(3-((3-(dimethylamino)pyrrolidin-1-yl)methyl)-5-(trifluoromethyl)phenyl)-6-(pyrazolo[1,5-a]pyrimidin-6-ylmethyl)-4,5,6,7-tetrahydrothieno[2,3-c]pyridine-3-carboxamide] |
